Laboratory results: PubChem BioAssay AID1508591

Settings: rat; liver microsomes; pH 7.4; 15.0 min; 1.0 µM

Row | half-life [min] | Compound
1 | 22 | CCc1ccc2oc(NC3=NC(c4[nH]ncc4Cl)C4=C(CCCC4=O)N3)nc2c1 (configuration not stated)
2 | 24 | COc1cccc(-c2nc(-c3cc4cc(OC)ccc4[nH]c3=O)no2)c1
3 | > 30 | COc1cc(-c2c(C#N)c(N)nc3c2c(C)nn3-c2ccc(F)cc2)ccc1O
4 | 6.77 | COc1ccccc1NC(=O)c1oc2ccccc2c1NC(=O)Cc1cccs1
5 | 1.88 | CCN(CCO)CCCOc1ccc2c(Nc3cc(CC(=O)Nc4cccc(F)c4)[nH]n3)ncnc2c1
6 | 2.5 | O=C(Nc1cccc(Cc2ccccc2)c1)c1ccc(-c2cccc([N+](=O)[O-])c2)o1
7 | 2.48 | Brc1ccc(-c2csc(N3CCOCC3)n2)cc1
8 | 2.05 | CC(=O)OCCN1C(=O)c2c(C)nc3ccc(S(=O)(=O)N4CCOCC4)cc3c2C1=O
9 | > 30 | Nc1nc2c(s1)C(c1cc(Cl)ccc1F)CC(=O)N2 (configuration not stated)
10 | > 30 | Fc1cc(Nc2nc(-c3ccncc3)nc3ccccc23)ccc1N1CCNCC1
11 | 2.55 | Clc1cccc(COc2cncc(N3CCNCC3)n2)c1
12 | > 30 | CC(C)(O)CNc1nc(Nc2ccnc(C(F)(F)F)c2)nc(-c2cccc(C(F)(F)F)n2)n1
13 | 1.69 | Cc1ccc(S(=O)(=O)Nc2ccccc2N2CCCCC2)cc1
14 | 8.98 | COc1cccc(Nc2ncc(-c3cccc(N(C)C)c3)c3c2OCC3)c1
15 | 1.4 | CCOC(=O)C1CCN(C(=O)C(C)(C)NC(=O)Nc2ccc(-c3ccccc3)cc2)CC1
16 | 13.8 | CC(C)CN(C[C@@H](O)[C@H](Cc1ccccc1)NC(=O)O[C@@H]1CO[C@H]2OCC[C@H]21)S(=O)(=O)c1ccc(N)cc1
17 | > 30 | NC1(c2ccc(NC(=O)c3ccnc(-c4cc(C(=O)O)ccn4)c3)cc2)CC1
18 | 1.76 | CN(C)CC/C=C1\c2ccccc2Sc2ccc(Cl)cc21
19 | 5.19 | Cc1noc(C)c1-c1ccc2ncnc(NCc3cccc(Cl)c3)c2c1
20 | > 30 | Brc1ccc(-c2csc(N3CCC(c4nn[nH]n4)CC3)n2)cc1
21 | > 30 | CC(=O)Nc1ncc(S(=O)(=O)N2CCOCC2)s1
22 | 2.8 | CC(C)c1ccccc1-c1ncc(F)c(NCc2ccc(-c3cccnc3)s2)n1
23 | 3.98 | C#C[C@]1(OC(C)=O)CC[C@H]2[C@@H]3CCC4=C/C(=N/O)CC[C@@H]4[C@H]3CC[C@@]21CC
24 | 23.5 | CC1CCC(n2c3cnccc3c3cnc(Nc4ccc5c(n4)CCN(C(=O)CO)C5)nc32)CC1 (configuration not stated)
25 | 8.35 | C[C@@]1(C(=O)Nc2ccc(F)nc2)CCCN1c1nc(Nc2cc(C3CC3)[nH]n2)c2cccn2n1

Row | half-life [min] | Compound
26 | 1.8 | Cc1cccc(-n2cnc3cc(C(=O)N4CCCC(C(C)C)C4)ccc32)c1 (configuration not stated)
27 | 3.17 | COc1cccc(C(=O)Nc2cccc(OCc3cc(=O)n4cccc(C)c4n3)c2)c1
28 | 12 | O=[S+]([O-])(Nc1nccs1)c1ccc(NCc2cc(Cl)cc(Br)c2O)cc1
29 | 2.2 | Cc1cc(-c2nnc3n2CCCCC3)c(C)n1-c1ccc(Br)cc1
30 | 9.11 | Cc1ccc(C)c(NC2=C(c3ccc(C(F)(F)F)cc3)C(=O)c3ccccc32)c1
31 | > 30 | Cc1ccnc(NC(=S)N2CCN(c3ccc(C(F)(F)F)cc3)CC2)c1
32 | > 30 | CCN(c1cc(C#CCN2CCOCC2)cc(C(=O)NCc2c(C)cc(C)[nH]c2=O)c1C)C1CCC(N(C)CCOC)CC1 (configuration not stated)
33 | 5.7 | O=C(Nc1nc(-c2ccccc2)cs1)c1ccncc1NS(=O)(=O)c1c(F)cc(F)cc1F
34 | 2.5 | CCCCCCN(CCCCCC)C(=O)Cc1c(-c2ccc(F)cc2)[nH]c2ccccc12
35 | > 30 | Fc1ccc(-c2ccc(Nc3nc(-c4ccncc4)nc4ccccc34)cc2F)cc1
36 | 1.58 | COc1ccccc1CNS(=O)(=O)c1ccc(-c2cnc(C3CC3)o2)cc1
37 | 5.73 | O=C1Nc2ccc(-c3cccc(C(F)(F)F)c3)cc2C(=O)N2CCN(C(=O)COc3ccccc3)C[C@H]12
38 | > 30 | COc1ccc(C2c3c(oc4ccc(Cl)cc4c3=O)C(=O)N2CCCN(C)C)cc1OC (configuration not stated)
39 | > 30 | COc1cccc(CNc2ccc(S(=O)(=O)Nc3nc4ccccc4s3)cc2)c1O
40 | 1.88 | NC(=O)C1CCN(c2nc(-c3cccc(Cl)c3)cs2)CC1
41 | > 30 | COc1cccc(CNc2ccc(S(=O)(=O)Nc3ncc(-c4ccccc4)s3)cc2)c1O
42 | 10 | Cc1nc2ccc(Nc3nc(-c4ccncc4)nc4ccccc34)cc2s1
43 | > 30 | O=[S+]([O-])(Nc1ccc(N2CCNCC2)cc1)c1ccc(NCc2cccc(Cl)c2O)cc1
44 | > 30 | CNC(=O)c1cccc(-c2cnc(Nc3cccc(C(F)(F)F)c3)c3c2CCO3)c1
45 | 4.21 | NC(=O)C1CCN(c2nc(-c3cc4ccccc4o3)cs2)CC1
46 | > 30 | O=C1Nc2cc(Cl)ccc2/C1=C\c1cc(Cl)c(O)c(Cl)c1
47 | 4.29 | c1c[nH]c(C2CCN(c3ncc(-c4ccc5c(c4)OCCCO5)s3)CC2)n1
48 | 1.76 | Cc1nn2c(c1-c1ccccc1Oc1ccccc1)N(Cc1ccccc1O)CCC2
49 | 9.65 | CNc1oc(-c2cccc(Cl)c2Cl)nc1C#N
50 | > 30 | Clc1ccc2ncc(-c3cccc(NC4CCNCC4)n3)n2c1

Row | half-life [min] | Compound
51 | 3.7 | Cc1ccc(S(=O)(=O)Nc2ccc(C)cc2C(=O)Nc2nc(-c3ccccc3)cs2)cc1
52 | 2.7 | CCN1CCN(c2ncc3c(n2)CCN(Cc2cc(Br)cs2)C3)CC1
53 | 2.13 | CC1=C[C@@H](CNCc2cccnc2)[C@H](C(C)C)C[C@H]1Cc1nnc(-c2ccc([N+](=O)[O-])cc2)o1
54 | 6.3 | CSc1ccc(/C=C/c2nc3ccccc3n2S(=O)(=O)c2ccc(Br)cc2)cc1
55 | 5 | O=C(Nc1nc(-c2ccccc2)cs1)c1ccncc1NS(=O)(=O)c1cccc(Cl)c1
56 | 9.88 | COc1cc2c(c(OC)c1OC)-c1ccc(SC)c(=O)cc1C(N)CC2 (configuration not stated)
57 | 3.08 | CC(=O)c1cccc(-c2csc3ncnc(Sc4nnnn4C)c23)c1
58 | 8.6 | N#Cc1nc(-c2cccc3ccccc23)oc1NCc1ccccc1
59 | 11.7 | Nc1cc(CN2C(=O)c3ccccc3C2=O)cc(Cl)c1O
60 | 24 | COc1ccc(Cl)cc1C(=O)Nc1nc(-c2ccccc2)cs1
61 | > 30 | CC(=O)c1ccc(N2CCN(C(=O)c3ccc4c(c3)CC(=O)N4)CC2)cc1
62 | 7.7 | Cc1cc(C)c(C(=O)Nc2cccc([S+](=O)([O-])Nc3ccc(Br)cc3)c2)[nH]1
63 | 14 | N#Cc1cccc(S(=O)(=O)Nc2cnccc2C(=O)Nc2nc(-c3ccccc3)cs2)c1
64 | 5.2 | COc1cc(C(=O)Nc2nc(-c3ccccc3)cs2)ccc1NS(=O)(=O)c1ccc(C)cc1
65 | 1.44 | CN(Cc1cccs1)c1ncnc2ccc(-c3ccc4c(c3)OCO4)cc12
66 | 5.28 | Cn1nnnc1Sc1ncnc2scc(-c3ccccc3F)c12
67 | 6 | Cc1ccc(C(=O)N2CCc3cc(-c4nc(NC(=O)Cc5ccc6c(c5)OCO6)sc4C)ccc32)cc1
68 | > 30 | Nc1c(C(=O)Nc2ccc(F)cc2)sc2nc(-c3cccs3)cc(C(F)(F)F)c12
69 | 1.6 | Cc1cc(C)nc(N2CCCC(C(=O)NCCc3ccc(F)cc3)C2)n1 (configuration not stated)
70 | > 30 | O=C(Nc1ccc2oc(-c3ccncc3)nc2c1)c1ccccc1Cl
71 | 3.84 | CC(C)c1ccc(S(=O)(=O)c2cnc(SCC(=O)Nc3ccc4c(c3)OCCO4)[nH]c2=O)cc1
72 | 27 | Fc1ccc(Nc2nc(-c3ccnc4ccccc34)nc3ccccc23)cc1F
73 | 1.43 | CCOc1ccc(NC(=O)c2nc(S(=O)(=O)Cc3ccccc3F)ncc2Cl)cc1
74 | 8.9 | Cc1ccc(S(=O)(=O)Nc2ccc(Br)cc2C(=O)Nc2nc(-c3ccccc3)cs2)cc1
75 | 12 | CC1=C(C(=O)Nc2ccccc2C)C(c2ccccc2Br)N=C(Nc2nc3ccccc3o2)N1 (configuration not stated)

Row | half-life [min] | Compound
76 | > 30 | COc1cc(OC)c2c(=O)[nH]c(-c3cc(C)c(OCCO)c(C)c3)nc2c1
77 | 5.17 | OCc1ccc(-c2nn(Cc3ccccc3)c3ccccc23)o1
78 | 2.3 | Cc1ccc(S(=O)(=O)Nc2cnccc2C(=O)Nc2nc(-c3ccc4c(c3)CCCC4)cs2)cc1
79 | 8.99 | O=c1c2ccccc2nc(/C=C/c2cccnc2)n1Cc1ccccc1
80 | 1.8 | CCOC(=O)c1[nH]c(C)c(CCC(=O)N2CCN(c3cc(Cl)ccc3C)CC2)c1C
81 | 1.46 | COC(=O)c1sccc1NC(=O)c1sccc1C
82 | 1.7 | CCOC(=O)C1CCN(C(=O)C2(NC(=O)Nc3ccccc3Cl)CCC2)CC1
83 | 6.38 | COc1cc(Cl)c(C)cc1NC(=O)CSc1ncc(S(=O)(=O)c2ccc(C(C)(C)C)cc2)c(=O)[nH]1
84 | > 30 | O=C(NCCN1CCOCC1)C1CC(=O)N(c2n[nH]c3cc(Br)ccc23)C1 (configuration not stated)
85 | > 30 | Cn1c(CN2CCCCC2)nc2cc(NC(=O)c3cccc(Br)c3)ccc21
86 | 14.7 | O=C(O)[C@H]1O[C@H]1C(=O)O
87 | 14.7 | CCc1ccc(NC(=O)c2[nH]c(C)c(C(C)=O)c2C)cc1S(=O)(=O)Nc1ccc(C#N)cc1
88 | 12 | COc1ccnc(NC(=S)N2CCN(c3cccc(C(F)(F)F)n3)CC2)c1
89 | > 30 | CCOc1cc2ncc(C#N)c(Nc3ccc(OCc4ccccn4)c(Cl)c3)c2cc1NC(=O)C=CCN(C)C
90 | > 30 | COc1cccc(CNc2ccc(S(=O)(=O)Nc3nc4ccccc4[nH]3)cc2)c1O
91 | 1.96 | CC1=Nc2cc(C(=O)NCc3ccccc3Cl)ccc2Sc2c(C)ccc(C)c21
92 | 1.9 | O=C(NCCc1ccc(OCC(F)(F)F)c(OCC(F)(F)F)c1)c1cc2sccc2n1Cc1ccccc1
93 | > 30 | CCOC(=O)c1ccnc(CNCC(=O)N(CC)CCN(C)C)c1
94 | 7.65 | Cc1ccc(S(=O)(=O)Nc2cc(Cl)ccc2C(=O)Nc2nc(-c3ccccc3)cs2)cc1
95 | > 30 | O=c1cc(-c2nc(Nc3ccc(F)c(F)c3)c3ccccc3n2)cc[nH]1
96 | 8.45 | COc1cc(C(=O)NC2CCCc3c2[nH]c2c(Cl)cccc32)cc(OC)c1OC (configuration not stated)
97 | 1.69 | COc1ccc(-c2noc(CSc3nnc(Cc4ccccc4)n3-c3ccc(F)cc3)n2)cc1

Row | Compound | half-life [min]
98 | CCOc1ccc(CCNC(=O)c2cc3ccncc3n2Cc2cccc(C)n2)cc1OCC | 29
99 | COc1ccc2c(c1)/C(=C/c1cnc[nH]1)C(=O)N2 | > 30
100 | CCOc1ccc(CCNC(=O)c2cc3ccccc3n2CCN2CCOCC2)cc1OCC | 1.6
101 | Cc1nc(-c2ccccc2)cc([C@H]2CN3CC[C@H]2C[C@@H]3CNC2CCOCC2)n1 | > 30
102 | COc1ccc(Cl)cc1NC(=O)c1sc2nc3c(cc2c1N)N1CCC3CC1 | 26.4
